Here are results for 11 compounds from ChEMBL document CHEMBL1146884, “Effect of lysine at C-terminus of the Dmt-Tic opioid pharmacophore” (J Med Chem, 2006).

Assay [1] has as its target T1, Delta-type opioid receptor (Mus musculus, UniProt P32300). The experiment in a line: Agonist activity at delta opioid receptor assessed as inhibition of electrically-evoked contraction of mouse vas deferens. In kind it is functional, tissue-based.
Assay [2] addresses T2, Mu-type opioid receptor (Cavia porcellus, UniProt P97266). Nature of the assay: Agonist activity at mu opioid receptor assessed as inhibition of electrically-evoked contraction of guinea pig ileum. It is filed as functional, tissue-based.
The target of assay [3] is T1, Delta-type opioid receptor. Nature of the assay: Antagonist activity at delta opioid receptor assessed as inhibition of deltorphin-2-induced contraction of mouse vas deferens.
The target in assay [4] is Delta-type opioid receptor (Rattus norvegicus, UniProt P33533). The experiment in a line: Displacement of [3H]deltorphin2 from delta opioid receptor in Sprague-Dawley rat brain P2 synaptosomal membrane.
For assay [5], the target named is Mu-type opioid receptor (Rattus norvegicus, UniProt P33535). Nature of the assay: Displacement of [3H]DAMGO from mu opioid receptor in Sprague-Dawley rat brain P2 synaptosomal membrane.
Assay [6] concerns the target Opioid receptors; mu & delta (Rattus norvegicus) (UniProt P33533+P33535). The experiment in a line: Selectivity for delta opioid receptor over mu opioid receptor in Sprague-Dawley rat brain P2 synaptosomal membrane.
In assay [7] the target is T2, Mu-type opioid receptor. Nature of the assay: Antagonist activity at mu opioid receptor assessed as inhibition of endomorphin-2-induced contraction of guinea pig ileum. In kind it is functional, tissue-based. The settings on record: read-out: pA2 (converted).

Where a SMILES comes first, the peptide text is derived from it. [ ]: non-standard residue; d: D form. The star is where a group is joined. Dmt = Cc1cc(O)cc(C)c1C[C@H](N)C(=O)O; Tic = O=C(O)[C@@H]1Cc2ccccc2CN1; Cbz = O=C(OCc1ccccc1)*; NHBn = c1ccc(CN*)cc1; NHPh = c1ccc(N*)cc1 Some results are limits rather than exact numbers.

Mu-type opioid receptor (Rattus norvegicus, UniProt P33535), sequence (P33535 whole entry): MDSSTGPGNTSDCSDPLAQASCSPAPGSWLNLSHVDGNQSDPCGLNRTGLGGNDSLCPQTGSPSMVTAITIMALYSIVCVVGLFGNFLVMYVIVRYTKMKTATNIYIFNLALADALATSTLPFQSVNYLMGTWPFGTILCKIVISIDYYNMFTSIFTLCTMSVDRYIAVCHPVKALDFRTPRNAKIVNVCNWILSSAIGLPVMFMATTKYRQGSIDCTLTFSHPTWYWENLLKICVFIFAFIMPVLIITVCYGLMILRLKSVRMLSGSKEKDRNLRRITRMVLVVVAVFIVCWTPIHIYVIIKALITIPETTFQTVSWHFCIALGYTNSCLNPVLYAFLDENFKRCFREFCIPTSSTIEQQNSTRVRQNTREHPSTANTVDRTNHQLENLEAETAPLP
T2 sequence (P97266 whole entry): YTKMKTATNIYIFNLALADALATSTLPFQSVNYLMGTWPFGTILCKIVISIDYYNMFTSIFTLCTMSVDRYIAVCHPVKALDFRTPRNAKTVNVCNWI
Delta-type opioid receptor (Rattus norvegicus, UniProt P33533), sequence (P33533 whole entry): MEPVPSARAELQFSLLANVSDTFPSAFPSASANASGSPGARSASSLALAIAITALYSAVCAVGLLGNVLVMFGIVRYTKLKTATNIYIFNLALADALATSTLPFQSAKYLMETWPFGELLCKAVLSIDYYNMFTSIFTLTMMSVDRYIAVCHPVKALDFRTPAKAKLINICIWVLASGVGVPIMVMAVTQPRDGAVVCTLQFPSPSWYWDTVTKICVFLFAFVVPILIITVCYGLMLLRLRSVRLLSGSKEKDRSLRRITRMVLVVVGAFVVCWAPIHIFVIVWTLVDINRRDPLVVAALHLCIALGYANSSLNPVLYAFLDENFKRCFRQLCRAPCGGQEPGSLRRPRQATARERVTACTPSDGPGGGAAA
Opioid receptors; mu & delta (Rattus norvegicus), sequence (P33533 whole entry, looked up): as the sequence (P33533 whole entry) above
Opioid receptors; mu & delta (Rattus norvegicus), sequence (P33535 whole entry, looked up): as the sequence (P33535 whole entry) above
T1 sequence (P32300 whole entry): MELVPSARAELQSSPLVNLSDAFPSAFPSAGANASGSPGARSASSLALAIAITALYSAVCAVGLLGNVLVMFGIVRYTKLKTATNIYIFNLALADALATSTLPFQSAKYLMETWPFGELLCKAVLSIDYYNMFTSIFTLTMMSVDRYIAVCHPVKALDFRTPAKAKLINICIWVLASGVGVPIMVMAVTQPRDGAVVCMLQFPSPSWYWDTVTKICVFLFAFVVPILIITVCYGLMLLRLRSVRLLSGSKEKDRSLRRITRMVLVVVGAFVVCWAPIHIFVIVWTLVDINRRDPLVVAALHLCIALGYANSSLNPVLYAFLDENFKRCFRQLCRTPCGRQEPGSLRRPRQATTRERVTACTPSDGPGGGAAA

For `Cc1cc(O)cc(C)c1C[C@H](N)C(=O)N1Cc2ccccc2C[C@H]1C(=O)N[C@@H](CCCCNC(=O)OCc1ccccc1)c1nc2ccccc2[nH]1`, the 50% inhibitory concentration (IC50) in assay [1] amounted to 9050 nM; in assay [2] it was 375 nM. For the same compound, the Kb in assay [3] is over 10000 nM. In addition, the figures for the inhibitory constant (Ki) in assay [4] and in assay [5] were 0.64 nM and 0.37 nM, respectively.

Regarding `Cc1cc(O)cc(C)c1C[C@H](N)C(=O)N1Cc2ccccc2C[C@H]1C(=O)N[C@H](CCCCNC(=O)OCc1ccccc1)c1nc2ccccc2[nH]1`, the half-maximal inhibitory concentration (IC50) in assay [1] was over 10000 nM; in assay [2], 62.5 nM. Further, in assay [3], the Kb is over 10000 nM. Further, the inhibitory constant (Ki) amounted to 0.4 nM in assay [4] and 0.15 nM in assay [5].

In the case of `CC(=O)NCCCC[C@H](NC(=O)[C@@H]1Cc2ccccc2CN1C(=O)[C@@H](N)Cc1c(C)cc(O)cc1C)c1nc2ccccc2[nH]1`, the IC50 in assay [1] is over 10000 nM; in assay [2] it was 53.9 nM. The Ki worked out at 0.18 nM in assay [4] and 0.13 nM in assay [5].

`Cc1cc(O)cc(C)c1C[C@H](N)C(=O)N1Cc2ccccc2C[C@H]1C(=O)N[C@@H](CCCCN)c1nc2ccccc2[nH]1`: the half-inhibitory concentration (IC50) was over 10000 nM in assay [1] and 39.7 nM in assay [2]. The values for the Ki in assay [4] and in assay [5] were 0.49 nM and 0.16 nM, respectively.

Regarding `Cc1cc(O)cc(C)c1C[C@H](N)C(=O)N1Cc2ccccc2C[C@H]1C(=O)NCC(=O)O` (H-[Dmt]-[Tic]-Gly-OH), the Kb in assay [3] is 1.41 nM. For the same compound, the inhibition constant (Ki) stood at 1.38 nM in assay [4] and 529 nM in assay [5]. Further, the Ratio Ki in assay [6] is 383.

`CC(=O)NCCCC[C@H](NC(=O)[C@@H]1Cc2ccccc2CN1C(=O)[C@@H](N)Cc1c(C)cc(O)cc1C)C(=O)NCc1ccccc1` (H-[Dmt]-[Tic]-Lys(Ac)-NHBn): the IC50 in assay [1] and in assay [2] was over 10000 nM each time. The Kb in assay [3] is 0.0398 nM; in assay [7], 6.92 nM. Also, the inhibitory constant (Ki) came to 0.068 nM in assay [4] and 5.5 nM in assay [5]. Also, in assay [6], the Ratio Ki was 81.

Take `CC(=O)NCCCC[C@H](NC(=O)[C@@H]1Cc2ccccc2CN1C(=O)[C@@H](N)Cc1c(C)cc(O)cc1C)C(=O)Nc1ccccc1` (H-[Dmt]-[Tic]-Lys(Ac)-NHPh): the IC50 in assay [1] was over 10000 nM; in assay [2] it was 1250 nM. In assay [3], the Kb was 0.001 nM. Besides, the inhibitory constant (Ki) is 0.13 nM in assay [4] and 0.63 nM in assay [5]. Moreover, the Ratio Ki in assay [6] is 5.

As for `Cc1cc(O)cc(C)c1C[C@H](N)C(=O)N1Cc2ccccc2C[C@H]1C(=O)N[C@@H](CCCCNC(=O)OCc1ccccc1)C(=O)NCc1ccccc1` (H-[Dmt]-[Tic]-Lys(Cbz)-NHBn), the half-inhibitory concentration (IC50) in assay [1] and in assay [2] was over 10000 nM each time. For the same compound, the Kb is 617 nM in assay [3] and 1510 nM in assay [7]. Besides, the Ki in assay [4] is 0.31 nM; in assay [5], 4.41 nM. Also, the Ratio Ki in assay [6] was 14.

Regarding `Cc1cc(O)cc(C)c1C[C@H](N)C(=O)N1Cc2ccccc2C[C@H]1C(=O)N[C@@H](CCCCNC(=O)OCc1ccccc1)C(=O)Nc1ccccc1` (H-[Dmt]-[Tic]-Lys(Cbz)-NHPh), the IC50 in assay [1] is over 10000 nM; in assay [2], 438 nM. In addition, in assay [3], the Kb is 1700 nM. Moreover, the results for the inhibitory constant (Ki) in assay [4] and in assay [5] were 0.57 nM and 1.47 nM, respectively. The Ratio Ki in assay [6] came out at 3.

Turning to `Cc1cc(O)cc(C)c1C[C@H](N)C(=O)N1Cc2ccccc2C[C@H]1C(=O)N[C@@H](CCCCN)C(=O)NCc1ccccc1` (H-[Dmt]-[Tic]-Lys-NHBn), the IC50 in assay [1] and in assay [2] was over 10000 nM throughout. For the same compound, the figures for the Kb in assay [3] and in assay [7] were 977 nM and 11 nM, respectively. Moreover, the inhibition constant (Ki) in assay [4] is 0.5 nM; in assay [5], 4.05 nM. The Ratio Ki in assay [6] was 8.

With `Cc1cc(O)cc(C)c1C[C@H](N)C(=O)N1Cc2ccccc2C[C@H]1C(=O)N[C@@H](CCCCN)C(=O)Nc1ccccc1` (H-[Dmt]-[Tic]-Lys-NHPh), the IC50 is over 10000 nM in assay [1] and 1250 nM in assay [2]. Further, the Kb in assay [3] was 4170 nM. The Ki is 0.42 nM in assay [4] and 0.93 nM in assay [5]. In addition, the Ratio Ki in assay [6] was 2.
